# Reference: patent publication US10653647B2 (priority 2003, dated 2020)
# System: terminal sensory nerve fibers of rat vulva
# Assay: reduction of nerve fiber density in rat vulva, PGP 9.5 immunostaining
# Type: in vivo
# Details: 33 μL, 1% (w/v) in DGME applied for 20 minutes, Day 7, statistical significance not established
# Method: Sixty female retired breeder Sprague-Dawley rats were divided into 6 groups. On day 0, rats were anesthetized with isoflurane anesthetic gas and then LMX5® anesthetic cream was applied to the entire vulvar area of each rat at least 30 minutes. The test formulations were applied using a micropipette to dispense 33 μL of each formulation. The formulations applied were diethylene glycol monoethyl ether (DGME) alone; 0.01% capsaicin (w/v) in DGME; 0.1% capsaicin (w/v) in DGME; 1% resiniferatoxin (w/v) in DGME; 3% capsaicin (w/v) in 90% (v/v) DGME and 10% (v/v) DMSO, a 10% capsaicin (w/v) in DGME. The formulations were left on for 20 minutes with the exception of 10% capsaicin (w/v) in DGME which was left on for 5 minutes. The remaining formulation was removed using a cleansing gel (89.08% PEG 300, 1.0% Carbopol 1382™, 0.02% butylated hydroxyanisole, 0.01% disodium edentate, pH 6.5). […] The tissues were evaluated by a board certified veterinary pathologist for (1) any and all lesions, with particular attention to inflammation and any microvascular changes, and (2) the presence, absence and any abnormalities in the architecture of the terminal nerve sensory nerve fibers. For each specimen, nerve fiber functionality was determined by counting the number of nerve fibers observed in at least four microscopical fields (each circular microscopical field has a radius of 90 μm) and then averaged. […]
smiles,measurement,value
C=C(C)[C@]12C[C@@H](C)[C@@]34O[C@](Cc5ccccc5)(O[C@@H]1[C@@H]3C=C(COC(=O)Cc1ccc(O)c(OC)c1)C[C@]1(O)C(=O)C(C)=C[C@@H]41)O2 [resiniferatoxin],decrease in nerve fiber density,28%
